Experimental data reported in US20260217701A1, “SELECTIVE BET INHIBITORS AND USES THEREOF” (Tay Therapeutics Limited, priority 2022, published 2026).
Several values for one entry are separate records, joined by “and”; a condition that tells them apart may be missing. Equal values may be shown once.

Assays:
BET BD2 = conditions: public sources, not a head-to-head trial, cited from earlier work; for BD2: comparator BET inhibitors
[1] = CIA study: animal body weight; conditions: for Average animal body weight percent change: CIA; for Animal body weight percent change (%): Group 3 (CIA + Dexamethasone), individual animals

In the case of `CCNC(=O)c1cc2c(-c3cc(C(C)(C)O)ccc3Oc3c(C)cc(F)cc3C)cn(C)c(=O)c2[nH]1` [ABBV-744], the “Selectivity (BD1/BD2)” value (BET BD2; FRET, comparator) is listed as 753x (FRET) and the BD2 (BET BD2) is listed as 28 nM.

With `C[C@@H]1C[C@H]2[C@@H]3CCC4=CC(=O)C=C[C@]4(C)[C@@]3(F)[C@@H](O)C[C@]2(C)[C@@]1(O)C(=O)CO` [Dexamethasone, dexamethasone] the “Average animal body weight percent change” value ([1]; Day 0) was 0.00%, the “Animal body weight percent change (%)” value ([1]; Day 0) was 0.00% and the “Average animal body weight percent change” value ([1]; Day 1) was −2.80%. For the same compound, the “Animal body weight percent change (%)” value ([1]; Day 1) was 0.66% and −7.41% and −1.72% and −2.37% and 1.20% and −6.21%, the “Average animal body weight percent change” value ([1]; Day 2) was −3.22% and the “Animal body weight percent change (%)” value ([1]; Day 2) was −0.66% and −6.79% and 1.15% and −1.78% and −3.01% and −8.07%. For the same compound, the “Average animal body weight percent change” value ([1]; Day 3) was −4.37%, the “Animal body weight percent change (%)” value ([1]; Day 3) was −1.99% and 11.11% and 0.57% and −2.96% and −2.41% and −9.94% and the “Average animal body weight percent change” value ([1]; Day 4) was −4.95%. The “Animal body weight percent change (%)” value ([1]; Day 4) was −2.65% and −9.26% and −2.30% and −5.33% and −6.02%, the “Average animal body weight percent change” value ([1]; Day 5) was −4.95% and the “Animal body weight percent change (%)” value ([1]; Day 5) was −2.65% and −8.02% and −5.17% and −2.96% and −4.82%. The “Average animal body weight percent change” value ([1]; Day 6) was −4.41%, the “Animal body weight percent change (%)” value ([1]; Day 6) was −2.65% and 6.17% and −1.72% and −4.73% and −6.63% and the “Average animal body weight percent change” value ([1]; Day 7) was −3.35%. For the same compound, the “Animal body weight percent change (%)” value ([1]; Day 7) was −0.66% and −5.56% and 2.30% and −4.14% and −3.61%, the “Average animal body weight percent change” value ([1]; Day 8) was −3.90% and the “Average animal body weight percent change” value ([1]; Day 9) was −1.84%. For the same compound, the “Average animal body weight percent change” value ([1]; Day 10) was −2.30%, the “Average animal body weight percent change” value ([1]; Day 11) was −1.24% and the “Average animal body weight percent change” value ([1]; Day 12) was −1.18%. The “Average animal body weight percent change” value ([1]; Day 13) was −0.91%, the “Average animal body weight percent change” value ([1]; Day 14) was −1.24% and the “Average animal body weight percent change” value ([1]; Day 15) was 0.43%. For the same compound, the “Animal body weight percent change (%)” value ([1]; Day 15) was 9.93% and −3.09% and 2.30% and 0.59% and 1.20% and −6.83% and 2.33% and −0.63%, the “Average animal body weight percent change” value ([1]; Day 16) was −0.57% and the “Animal body weight percent change (%)” value ([1]; Day 16) was 3.97% and −5.56% and 7.47% and −0.59% and −4.22% and −8.70% and 1.16% and 1.88%. The “Average animal body weight percent change” value ([1]; Day 17) was 0.62%, the “Animal body weight percent change (%)” value ([1]; Day 17) was 5.96% and −4.32% and 8.05% and −2.37% and 0.60% and −6.83% and −1.16% and 5.00% and the “Average animal body weight percent change” value ([1]; Day 18) was 1.02%. For the same compound, the “Animal body weight percent change (%)” value ([1]; Day 18) was 3.97% and −6.17% and 8.62% and −2.37% and 0.00% and −5.59% and 4.07% and 5.63%, the “Average animal body weight percent change” value ([1]; Day 19) was 1.53% and the “Animal body weight percent change (%)” value ([1]; Day 19) was 7.28% and −9.26% and 10.34% and 0.59% and 1.20% and −5.59% and 5.81% and 1.88%. For the same compound, the “Average animal body weight percent change” value ([1]; Day 20) was 1.66%, the “Animal body weight percent change (%)” value ([1]; Day 20) was 7.95% and −3.70% and 5.75% and 2.37% and 0.60% and 4.35% and 4.65% and 0.00% and the “Average animal body weight percent change” value ([1]; Day 21) was 1.30%. The “Animal body weight percent change (%)” value ([1]; Day 21) was 8.61% and −3.70% and 7.47% and 0.00% and −3.01% and −5.59% and 2.91% and 3.75%.

For `CNC(=O)c1cc(C(=O)NC2CC2)cn(Cc2ccccc2)c1=O` [GSK620], the BD2 (BET BD2) is listed as 79 nM.
